Laboratory results taken from ChEMBL document CHEMBL1781893, “New potent human acetylcholinesterase inhibitors in the tetracyclic triterpene series with inhibitory potency on amyloid β aggregation” (Eur J Med Chem, 2011).

Columns and labels:
Acetylcholinesterase [1] = target: Acetylcholinesterase (Electrophorus electricus, UniProt O42275)
Description: Inhibition of Electrophorus electricus AChE using acetylthiocholine iodide as substrate by spectroscopic Ellmans method

Cholinesterase = Cholinesterase (Homo sapiens, UniProt P06276)
Description: Inhibition of recombinant human serum BChE using butyrylthiocholine iodide as substrate by spectroscopic Ellmans method

Acetylcholinesterase [2] = target: Acetylcholinesterase (Homo sapiens, UniProt P22303)
Chain of Acetylcholinesterase (Homo sapiens, UniProt P22303) (P22303 whole entry): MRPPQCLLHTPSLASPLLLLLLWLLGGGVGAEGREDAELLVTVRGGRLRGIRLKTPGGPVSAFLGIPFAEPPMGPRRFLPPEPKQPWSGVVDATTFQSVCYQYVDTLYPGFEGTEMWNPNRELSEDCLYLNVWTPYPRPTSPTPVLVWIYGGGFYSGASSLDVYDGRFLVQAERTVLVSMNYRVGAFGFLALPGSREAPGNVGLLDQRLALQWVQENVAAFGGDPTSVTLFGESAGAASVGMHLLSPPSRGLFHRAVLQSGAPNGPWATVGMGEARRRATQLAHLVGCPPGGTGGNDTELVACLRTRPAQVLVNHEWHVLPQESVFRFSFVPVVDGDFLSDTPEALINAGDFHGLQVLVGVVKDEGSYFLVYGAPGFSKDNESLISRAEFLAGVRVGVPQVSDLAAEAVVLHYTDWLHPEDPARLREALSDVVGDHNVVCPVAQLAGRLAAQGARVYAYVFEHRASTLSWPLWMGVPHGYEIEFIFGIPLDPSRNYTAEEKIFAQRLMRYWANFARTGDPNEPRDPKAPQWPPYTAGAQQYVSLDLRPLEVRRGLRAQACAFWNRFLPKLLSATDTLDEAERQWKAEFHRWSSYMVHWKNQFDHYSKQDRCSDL
Description: Inhibition of recombinant human AChE using acetylthiocholine iodide as substrate by spectroscopic Ellmans method

Chain of Cholinesterase (P06276 whole entry): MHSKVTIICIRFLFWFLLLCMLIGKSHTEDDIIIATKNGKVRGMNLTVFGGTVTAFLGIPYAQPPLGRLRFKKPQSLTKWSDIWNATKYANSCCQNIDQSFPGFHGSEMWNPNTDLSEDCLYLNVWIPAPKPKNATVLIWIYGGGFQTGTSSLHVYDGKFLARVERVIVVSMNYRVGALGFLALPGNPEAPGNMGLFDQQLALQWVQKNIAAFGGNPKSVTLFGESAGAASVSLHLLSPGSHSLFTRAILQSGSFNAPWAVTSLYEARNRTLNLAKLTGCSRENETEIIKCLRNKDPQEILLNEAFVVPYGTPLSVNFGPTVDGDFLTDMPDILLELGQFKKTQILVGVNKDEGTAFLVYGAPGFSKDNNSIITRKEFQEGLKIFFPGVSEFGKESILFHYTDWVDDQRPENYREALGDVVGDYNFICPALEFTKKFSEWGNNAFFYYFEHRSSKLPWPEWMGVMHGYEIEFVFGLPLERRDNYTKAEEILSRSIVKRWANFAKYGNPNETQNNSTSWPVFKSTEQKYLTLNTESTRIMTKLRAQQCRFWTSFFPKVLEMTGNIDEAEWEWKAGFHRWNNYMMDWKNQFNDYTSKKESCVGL
Chain of Acetylcholinesterase (Electrophorus electricus, UniProt O42275) (O42275 whole entry): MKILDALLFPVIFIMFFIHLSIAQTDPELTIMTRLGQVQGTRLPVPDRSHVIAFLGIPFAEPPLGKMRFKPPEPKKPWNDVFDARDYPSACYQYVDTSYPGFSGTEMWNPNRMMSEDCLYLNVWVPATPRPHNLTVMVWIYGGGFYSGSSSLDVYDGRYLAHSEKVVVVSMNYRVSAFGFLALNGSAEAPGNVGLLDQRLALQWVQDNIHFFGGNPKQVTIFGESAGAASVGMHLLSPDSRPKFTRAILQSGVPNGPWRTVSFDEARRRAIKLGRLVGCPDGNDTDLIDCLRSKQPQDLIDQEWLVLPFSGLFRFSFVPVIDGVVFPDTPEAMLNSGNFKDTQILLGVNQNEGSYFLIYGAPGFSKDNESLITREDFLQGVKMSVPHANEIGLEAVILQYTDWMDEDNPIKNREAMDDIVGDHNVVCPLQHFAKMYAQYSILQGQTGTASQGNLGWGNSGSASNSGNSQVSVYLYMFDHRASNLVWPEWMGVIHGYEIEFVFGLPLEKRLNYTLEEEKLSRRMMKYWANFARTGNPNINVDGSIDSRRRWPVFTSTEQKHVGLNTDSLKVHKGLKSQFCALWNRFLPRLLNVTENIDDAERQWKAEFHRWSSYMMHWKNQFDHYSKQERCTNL

Structure (SMILES) | IC50 (Acetylcholinesterase [1]) | IC50 (Cholinesterase) | IC50 (Acetylcholinesterase [2])
CCN1C[C@]2(C)[C@H](CC=C3C[C@H]4C(=O)C[C@]5(C)[C@@H]([C@H](C)N(C)C)[C@H](O)C[C@@]5(C)[C@@H]4CC[C@H]32)N=C1C(C)C | > 10000 nM | 3330 nM | > 10000 nM
CC(C)C1=N[C@H]2CC[C@]34C[C@]35C(=O)C[C@]3(C)[C@@H]([C@H](C)N(C)CCCN6C(=O)c7ccccc7C6=O)[C@H](O)C[C@@]3(C)[C@@H]5CC[C@H]4[C@]2(C)CS1 | 14 nM | 224 nM | 14 nM
COc1cccc(CN(C)[C@@H](C)[C@H]2[C@H](O)C[C@@]3(C)[C@@H]4CC[C@H]5[C@]6(C)CSC(C(C)C)=N[C@H]6CC[C@@]56C[C@@]46C(=O)C[C@]23C)c1 | 6 nM | 477 nM | 3 nM
COc1ccc(CN(C)[C@@H](C)[C@H]2[C@H](O)C[C@@]3(C)[C@@H]4CC[C@H]5[C@]6(C)CSC(C(C)C)=N[C@H]6CC[C@@]56C[C@@]46C(=O)C[C@]23C)cc1 | 18 nM | 217 nM | 9 nM
CC(C)C1=N[C@H]2CC[C@]34C[C@]35C(=O)C[C@]3(C)[C@@H]([C@H](C)N(C)Cc6ccccc6C(F)(F)F)[C@H](O)C[C@@]3(C)[C@@H]5CC[C@H]4[C@]2(C)CS1 | 24 nM | > 10000 nM | 11 nM
CC(C)C1=N[C@H]2CC[C@]34C[C@]35C(=O)C[C@]3(C)[C@@H]([C@H](C)N(C)Cc6cccc(C(F)(F)F)c6)[C@H](O)C[C@@]3(C)[C@@H]5CC[C@H]4[C@]2(C)CS1 | 9 nM | > 10000 nM | 3 nM
CC(C)C1=N[C@H]2CC[C@]34C[C@]35C(=O)C[C@]3(C)[C@@H]([C@H](C)N(C)Cc6ccc(C(F)(F)F)cc6)[C@H](O)C[C@@]3(C)[C@@H]5CC[C@H]4[C@]2(C)CS1 | 7 nM | > 10000 nM | 3 nM
CC(C)C1=N[C@H]2CC[C@]34C[C@]35C(=O)C[C@]3(C)[C@@H]([C@H](C)N(C)CCN6C(=O)c7ccccc7C6=O)[C@H](O)C[C@@]3(C)[C@@H]5CC[C@H]4[C@]2(C)CS1 | 24 nM | 653 nM | 70 nM
CC(C)C1=N[C@H]2CC[C@]34C[C@]35C(=O)C[C@]3(C)[C@@H]([C@H](C)N(C)C)[C@H](O)C[C@@]3(C)[C@@H]5CC[C@H]4[C@]2(C)CS1 | 38 nM | 5370 nM | 60 nM
CN[C@@H](C)[C@H]1[C@H](O)C[C@@]2(C)[C@@H]3CC[C@H]4[C@]5(C)CSC(C(C)C)=N[C@H]5CC[C@@]45C[C@@]35C(=O)C[C@]12C | 45 nM | 1340 nM | 76 nM
CC(=O)N(C)[C@@H](C)[C@H]1[C@H](O)C[C@@]2(C)[C@@H]3CC[C@H]4[C@]5(C)CSC(C(C)C)=N[C@H]5CC[C@@]45C[C@@]35C(=O)C[C@]12C | 139 nM | > 10000 nM | 298 nM
CC(C)C1=N[C@H]2CC[C@]34C[C@]35C(=O)C[C@]3(C)[C@@H]([C@H](C)N(C)C(=O)c6ccccc6)[C@H](O)C[C@@]3(C)[C@@H]5CC[C@H]4[C@]2(C)CS1 | 37 nM | > 1000 nM | 43 nM
CC(C)C1=N[C@H]2CC[C@]34C[C@]35C(=O)C[C@]3(C)[C@@H]([C@H](C)N(C)C(=O)OC(C)(C)C)[C@H](O)C[C@@]3(C)[C@@H]5CC[C@H]4[C@]2(C)CS1 | 186 nM | > 10000 nM | 159 nM
CC(C)C1=N[C@H]2CC[C@]34C[C@]35C(=O)C[C@]3(C)[C@@H]([C@H](C)N(C)Cc6ccccc6)[C@H](O)C[C@@]3(C)[C@@H]5CC[C@H]4[C@]2(C)CS1 | 13 nM | 554 nM | 7 nM
CC(C)C1=N[C@H]2CC[C@]34C[C@]35C(=O)C[C@]3(C)[C@@H]([C@H](C)N(C)CCc6ccccc6)[C@H](O)C[C@@]3(C)[C@@H]5CC[C@H]4[C@]2(C)CS1 | 14 nM | 501 nM | 20 nM
CC(C)C1=N[C@H]2CC[C@]34C[C@]35C(=O)C[C@]3(C)[C@@H]([C@H](C)N(C)CCCc6ccccc6)[C@H](O)C[C@@]3(C)[C@@H]5CC[C@H]4[C@]2(C)CS1 | 79 nM | 1430 nM | 76 nM
COc1ccccc1CN(C)[C@@H](C)[C@H]1[C@H](O)C[C@@]2(C)[C@@H]3CC[C@H]4[C@]5(C)CSC(C(C)C)=N[C@H]5CC[C@@]45C[C@@]35C(=O)C[C@]12C | 12 nM | 333 nM | 6 nM
C[C@@H]([C@H]1[C@H](O)C[C@@]2(C)[C@@H]3CC[C@H]4[C@]5(C)COC(C(F)(F)F)=N[C@H]5CC[C@@]45C[C@@]35C(=O)C[C@]12C)N(C)C | > 10000 nM | > 10000 nM | > 10000 nM
C[C@@H]([C@H]1[C@H](O)C[C@@]2(C)[C@@H]3CC[C@H]4[C@]5(C)COC(C(C)(C)F)=N[C@H]5CC[C@@]45C[C@@]35C(=O)C[C@]12C)N(C)C | 336 nM | > 10000 nM | 744 nM
C[C@@H]([C@H]1[C@H](O)C[C@@]2(C)[C@@H]3CC[C@H]4[C@]5(C)COC(C(F)(C(F)(F)F)C(F)(F)F)=N[C@H]5CC[C@@]45C[C@@]35C(=O)C[C@]12C)N(C)C | 1700 nM | > 10000 nM | 3000 nM
CC(C)C1=N[C@H]2CC[C@]34C[C@]35C(=O)C[C@]3(C)[C@@H]([C@H](C)N(C)C)[C@H](O)C[C@@]3(C)[C@@H]5CC[C@H]4[C@]2(C)CN1C | > 10000 nM | 2950 nM | > 10000 nM
CC(C)C1=N[C@H]2CC[C@]34C[C@]35C(=O)C[C@]3(C)[C@@H]([C@H](C)N(C)C)[C@H](O)C[C@@]3(C)[C@@H]5CC[C@H]4[C@]2(C)N1 | > 10000 nM | 7220 nM | > 10000 nM
CC(C)C1=N[C@H]2CC[C@]34C[C@]35C(=O)C[C@]3(C)[C@@H]([C@H](C)N(C)C)[C@H](O)C[C@@]3(C)[C@@H]5CC[C@H]4[C@]2(C)C=C1 | 16 nM | 679 nM | 25 nM
CC(C)C1=N[C@H]2CC[C@]34C[C@]35C(=O)C[C@]3(C)[C@@H]([C@H](C)N(C)C)[C@H](O)C[C@@]3(C)[C@@H]5CC[C@H]4[C@]2(C)CC1 | 294 nM | > 10000 nM | 618 nM
CC(C)C1=N[C@H]2CC[C@]34C[C@]35C(=O)C[C@]3(C)[C@@H]([C@H](C)N(C)C)[C@H](O)C[C@@]3(C)[C@@H]5CC[C@H]4[C@]2(C)CN1 | > 10000 nM |  | 
